Experimental findings from ChEMBL document CHEMBL6114949, “Synthesis and physiological effects of new 4-aminophenol derivatives as paracetamol analogues” (Bioorg Med Chem Lett, 2025) are described below.

Data set [1] in a line: Hepatotoxicity in zymosan-induced rat arthritis model assessed as change in hepatocyte cytoplasmic appearance at 240 mg/kg, ig administered once daily for 7 days by hematoxylin-eosin staining based histological analysis. Type of data set: toxicity, organism-based, Liver. Conditions: in vivo, po, 168 h, time 7 day.
Data set [2] relates to Rattus norvegicus. As to the kind of experiment: Antipyretic activity against LPS-induced polyphasic febrile response in rats assessed as change in core body temperature at 240 mg/kg, po treated 40 mins prior to LPS addition and measured after 160 mins during phase 1 (reference value: 0.85 deg C). The data set is classed as functional, organism-based. Conditions: time 200.0 min.

The subject of data set [3] is Rattus norvegicus. As to the kind of experiment: Antipyretic activity against LPS-induced polyphasic febrile response in rats assessed as suppression of rise in core body temperature at 240 mg/kg, po treated 40 mins prior to LPS addition and measured after 10 mins. Type of data set: functional, organism-based. Conditions: time 50.0 min.
Data set [4] in a line: Hepatotoxicity in zymosan-induced rat arthritis model assessed as change in hepatocyte shape at 240 mg/kg, ig administered once daily for 7 days by hematoxylin-eosin staining based histological analysis. The data set is classed as toxicity, organism-based, Liver. The conditions noted are these: in vivo, po, 168 h, time 7 day.
Data set [5] is described as follows: Hepatotoxicity in zymosan-induced rat arthritis model assessed as effect on sinusoids elongation at 240 mg/kg, ig administered once daily for 7 days by hematoxylin-eosin staining based histological analysis. The data set is classed as toxicity, organism-based, Liver. Conditions: in vivo, po, 168 h, time 7 day.
A short description of data set [6]: Hepatotoxicity in zymosan-induced rat arthritis model assessed as appearance of vacuoles in hepatocyte cytoplasm at 240 mg/kg, ig administered once daily for 7 days by hematoxylin-eosin staining based histological analysis. Type of data set: toxicity, organism-based, Liver. Conditions: in vivo, po, 168 h, time 7 day.
Data set [7] in a line: Hepatotoxicity in zymosan-induced rat arthritis model assessed as change in hepatocyte nucleus size at 240 mg/kg, ig administered once daily for 7 days by hematoxylin-eosin staining based histological analysis. The data set is classed as toxicity, organism-based, Liver. Conditions: in vivo, po, 168 h, time 7 day.
Data set [8] in a line: Hepatotoxicity in zymosan-induced rat arthritis model assessed as effect on general architecture of liver at 240 mg/kg, ig administered once daily for 7 days by hematoxylin-eosin staining based histological analysis. The data set is classed as toxicity, organism-based. The conditions noted are these: in vivo, po, 168 h, time 7 day.
A short description of data set [9]: Hepatotoxicity in zymosan-induced rat arthritis model assessed as effect on sinusoids arrangement at 240 mg/kg, ig administered once daily for 7 days by hematoxylin-eosin staining based histological analysis. Type of data set: toxicity, organism-based, Liver. The conditions noted are these: in vivo, po, 168 h, time 7 day.
Data set [10] is described as follows: Hepatotoxicity in zymosan-induced rat arthritis model assessed as change in shape of liver portal tracts at 240 mg/kg, ig administered once daily for 7 days by hematoxylin-eosin staining based histological analysis. The data set is classed as toxicity, organism-based. Conditions: in vivo, po, 168 h, time 7 day.
Data set [11] has as its system Rattus norvegicus. As to the kind of experiment: Antinociceptive activity in zymosan-induced rat arthritis model assessed as nociceptive response inhibition at 240 mg/kg, ig administered once daily for 7 days and measured 1 hr post-zymosan challenge on day 7 by Randall-Selitto test (reference value: -34.6%). Type of data set: functional. Conditions: po, 168 h, time 7 day.

A short description of data set [12]: Hepatotoxicity in zymosan-induced rat arthritis model assessed as effect on beam structure of liver at 240 mg/kg, ig administered once daily for 7 days by hematoxylin-eosin staining based histological analysis. Type of data set: toxicity, organism-based. Conditions: in vivo, po, 168 h, time 7 day.
Data set [13] has as its system Rattus norvegicus. As to the kind of experiment: Antipyretic activity against LPS-induced polyphasic febrile response in rats assessed as suppression of rise in core body temperature at 240 mg/kg, po treated 40 mins prior to LPS addition and measured after 200 mins. The data set is classed as functional, organism-based. Conditions: time 240.0 min.
Data set [14] can be described thus: Hepatotoxicity in zymosan-induced rat arthritis model assessed as change in shape of liver central veins at 240 mg/kg, ig administered once daily for 7 days by hematoxylin-eosin staining based histological analysis. The data set is classed as toxicity, organism-based. The conditions noted are these: in vivo, po, 168 h, time 7 day.
Data set [15] can be described thus: Hepatotoxicity in zymosan-induced rat arthritis model assessed as change in hepatocyte karyoplasm at 240 mg/kg, ig administered once daily for 7 days by hematoxylin-eosin staining based histological analysis. The conditions noted are these: in vivo, po, 168 h, time 7 day. The data set is classed as toxicity, organism-based, Liver.
The subject of data set [16] is Rattus norvegicus. As to the kind of experiment: Antinociceptive activity in zymosan-induced rat model of thermal nociceptive hypersensitivity assessed as nociceptive response inhibition at 240 mg/kg, ig administered once daily for 7 days and measured 1 hr post-zymosan challenge on day 7 by hot-plate test (reference value: -42.4%). Type of data set: functional. The conditions noted are these: po, 168 h, time 7 day. Background: In hot-plate and tail-flick tests a longer latency is read as antinociception.

Data set [17] deals with Rattus norvegicus. Briefly: Antipyretic activity against LPS-induced polyphasic febrile response in rats assessed as suppression of rise in core body temperature at 240 mg/kg, po treated 40 mins prior to LPS addition and measured after 160 mins relative to control. Type of data set: functional. Conditions: time 200 min, 3.333 h.
Data set [18] in a line: Hepatotoxicity in zymosan-induced rat arthritis model assessed as disruption of hepatocyte membrane at 240 mg/kg, ig administered once daily for 7 days by hematoxylin-eosin staining based histological analysis. Type of data set: toxicity, organism-based, Liver. The conditions noted are these: in vivo, po, 168 h, time 7 day.

The structures appear in SMILES notation. Calls of active or inactive are those of the source. The calls are words filed in the database; no cut-off is given here.

One may read the ΔTm as the shift of the melting midpoint relative to a reference. The inhibition in vivo is the relative decrease from the control value, in per cent. Regarding `CCCCCCCCCCCCCCCC(=O)Nc1ccc(OCC(=O)NCCO)cc1`, the Activity entry in data set [1], in [4], in [5], in data set [6], in data set [7] and in data set [8] was “Non-toxic” each time. Besides, the Activity entry in data set [9], in data set [10], in data set [12], in data set [14], in data set [15] and in [18] was “Non-toxic” throughout. Further, in data set [2], the shift in melting temperature (ΔTm) was 0.28 °C. Also, the result in [3] and in [13] was Active. The inhibition in vivo at 240 mg/kg turned out to be 23.1% in [11] and 29.8% in [16]. The “fold change (FC)” value in [17] worked out at 3.
